Test results: patent publication US4942226A, “Halogenated pyrimidine nucleosides and their derivatives” (Merck & Co., Inc., priority 1988, dated 1990)
Structures can show the parent of a compound that is named as a salt. Where two headings read alike, the source gives them in different places.

Test: Determination of Ester Half-lives (conversion of ester to alcohol in phosphate buffer at 37°, HPLC)
Type: physicochemical
Settings: read-out: t1/2 (time required for 50% conversion of ester to alcohol)
Experimental: Determination of Ester Half-lives
Two mL of phosphate buffer preheated to 37° were added to approximately 0.5 mg of the ester dihydrochloride. The resulting solution was heated at 37° while 20 μL samples were removed at intervals and injected directly into the HPLC injection port.
Unreacted ester and 5-halo-2'-deoxyuridine concentrations were determined by HPLC analysis on a C-18 reverse phase column using a gradient of 98% pH 2.4 phosphoric acid--2% acetonitrile to 70% pH 2.4 phosphoric acid--30% acetonitrile over 10 minutes. The UV detector was set at 280 nm. The half-life (t1/2) is the time required for 50% conversion of ester to alcohol.

| Structure (SMILES) | half-life (pH 6.8, 37°) | half-life (pH 7.4, 37°) |
| --- | --- | --- |
| CCNCCNCC(=O)O[C@H]1C[C@H](n2cc(Br)c(=O)[nH]c2=O)O[C@@H]1CO [Example 1, 5-Bromo-2'-deoxyuridine 3'-N-(2-Ethylaminoethyl)-glycyl Ester Dihydrochloride] | 32 min | 26 min |
| O=C(CNCCNCCC1CCCCC1)O[C@H]1C[C@H](n2cc(Br)c(=O)[nH]c2=O)O[C@@H]1CO [Example 2, 5-Bromo-2'-deoxyuridine 3'-[N-(2-(2-Cyclohexylethylamino)ethyl)glycyl]esterDihydrochloride] | 47 min | 29 min |
| O=C(CNCCNCCC1CCCCC1)OC[C@H]1O[C@@H](n2cc(Br)c(=O)[nH]c2=O)C[C@@H]1O [Example 3, 5-Bromo-2'-deoxyuridine 5'-N-(2-(2-cyclohexylethylamino)ethyl]glycyl Ester Dihydrochloride] | 35 min | 22 min |
